Drawing on patent US12673946B2, “Pyrimidin-4(3H)-one derivatives as TRPV4 antagonists” (RaQualia Pharma Inc., priority 2020, dated 2026), this text covers IC50 for 50 molecules.

For this assay, the target named is T1, human TRPV4 (Homo sapiens, UniProt Q9HBA0).
T1 construct: host or cells: tetracycline-inducible Flp-In T-REx 293 cells
Description: Hypotonicity-induced Ca2+ influx (Fluo-4, FDSS). It counts as cell-based. The protocol:
Hypotonicity-Induced Ca^2+ Influx
TRPV4 channel activation/opening results in an influx of Ca^2+ (Liedtke, W. et al., 2000 (NPL 1)). The resulting changes in intracellular calcium are monitored using a Ca^2+ sensitive fluorescent dye Fluo-4 (Invitrogen). Dye loaded cells are treated with the test compounds for 5 minutes prior to the addition of a hypotonic solution and the inhibition of the hypotonicity-induced activation is recorded.
Forty microL of tetracycline-inducible Flp-In T-REx 293 cells (Invitrogen) stably expressing human TRPV4 are seeded onto the poly-D-lysine coated 384-well plate (Corning) at a density of 10,000 cells per well. The following day, TRPV4 expression is induced by adding 0.5 microg/mL tetracycline for 20-24 hours. On the day of the experiment, the media is removed and replaced with 40 microL of dye loading buffer [1 microM Fluo-4 AM (Invitrogen), 0.01% Pluronic F-127, and 20 mM HEPES in Hanks' balanced salt solutions (HBSS; Invitrogen)] and then the cells are incubated for 60 minutes at 25° C. Dye is then removed and replaced with 20 microL of assay buffer (20 mM HEPES in HBSS). Five minutes prior to the fluorescence measurement, 10 microL of test compound is added to the cells. Using the FDSS instrument (Hamamatsu Photonics), 30 microL of hypotonic solution (90 mM D-mannitol and 1.26 mM CaCl2 in ultrapure water) is added 30 seconds after the start of measurement. The calcium flux signal is recorded for a total of 4.5 minutes.

[1] abbreviates: Flp-In T-REx 293 cells expressing human TRPV4, examples listed under heading 'Human IC50<50 nM'.
Where [2] appears, read: Flp-In T-REx 293 cells stably expressing human TRPV4, compounds listed by potency bin (<10 nM Tables 96-1/96-2, <3 nM Table 97).

T1 sequence (Q9HBA0 whole entry): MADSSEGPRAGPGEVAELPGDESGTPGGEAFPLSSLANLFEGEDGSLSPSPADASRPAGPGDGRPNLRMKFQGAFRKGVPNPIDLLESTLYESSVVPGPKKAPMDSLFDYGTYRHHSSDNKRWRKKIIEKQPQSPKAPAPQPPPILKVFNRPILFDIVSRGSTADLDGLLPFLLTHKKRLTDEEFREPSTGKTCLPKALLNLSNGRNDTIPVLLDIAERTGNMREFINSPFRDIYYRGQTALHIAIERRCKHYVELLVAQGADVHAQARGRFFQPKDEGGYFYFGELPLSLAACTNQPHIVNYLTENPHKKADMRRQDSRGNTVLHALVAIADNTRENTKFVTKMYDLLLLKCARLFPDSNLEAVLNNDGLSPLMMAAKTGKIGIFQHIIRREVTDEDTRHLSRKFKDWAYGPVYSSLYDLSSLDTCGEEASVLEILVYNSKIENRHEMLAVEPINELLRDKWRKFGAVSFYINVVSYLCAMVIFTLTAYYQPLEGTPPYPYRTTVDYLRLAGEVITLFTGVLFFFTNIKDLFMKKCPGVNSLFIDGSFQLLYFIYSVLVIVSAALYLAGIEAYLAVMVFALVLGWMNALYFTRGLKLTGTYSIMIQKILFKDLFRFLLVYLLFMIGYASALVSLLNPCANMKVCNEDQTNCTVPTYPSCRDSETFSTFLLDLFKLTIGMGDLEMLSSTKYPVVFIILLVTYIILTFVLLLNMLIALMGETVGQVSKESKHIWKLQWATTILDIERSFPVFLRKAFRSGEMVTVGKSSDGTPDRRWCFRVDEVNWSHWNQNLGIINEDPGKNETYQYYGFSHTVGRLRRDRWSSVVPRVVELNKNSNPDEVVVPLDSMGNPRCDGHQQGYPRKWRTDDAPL

A word on the IC50: it is the concentration that inhibits the measured activity by half. As for `CC(C)(C)c1cccc(C(O)C(=O)N2CCc3nc(C4(c5ccccc5)CC4)[nH]c(=O)c3C2)c1` (stereo not shown) [14-30], the IC50 under setting [1] is < 50 nM.
In the case of `O=C(C(O)c1cccc(S(F)(F)(F)(F)F)c1)N1CCc2nc(C3(c4ccccc4)CC3)[nH]c(=O)c2C1` (stereo not shown) [14-31], under setting [1], the IC50 was < 50 nM.
In the case of `CC(C)c1cccc(C(O)C(=O)N2CCc3nc(C4(c5cccc(F)c5)CC4)[nH]c(=O)c3C2)c1` (stereo not shown) [14-32], the IC50 under setting [1] is < 50 nM.
`O=C(C(O)c1cccc(OCc2ccccc2)c1)N1CCc2nc(C3(c4cccc(Cl)c4)CC3)[nH]c(=O)c2C1` (stereo not shown) [14-106]: the IC50 reads like this: under setting [1], < 50 nM; under setting [2], < 10 nM.
The matching figures for `CC(C)c1cccc(C2(c3nc4c(c(=O)[nH]3)CN(C(=O)C(O)c3cccc(C(C)(C)C)c3)CC4)CC2)c1` (stereo not shown) [14-107]: < 50 nM and < 10 nM.
The matching figures for `CC(C)c1cccc(C2(c3nc4c(c(=O)[nH]3)CN(C(=O)C(O)c3cccc(C(F)(F)F)c3F)CC4)CC2)c1` (stereo not shown) [14-109]: < 50 nM and < 10 nM.
The corresponding values for `CC(C)c1cccc(C2(c3nc4c(c(=O)[nH]3)CN(C(=O)C(O)c3cccc(Cl)c3F)CC4)CC2)c1` (stereo not shown) [14-110] are < 50 nM and < 10 nM.
With `O=C(C(O)c1cccc(OCc2ccccc2)c1)N1CCc2nc(C3(c4ccccc4)CC3)[nH]c(=O)c2C1` (stereo not shown) [14-111], the IC50 under setting [1] was < 50 nM.
Same read-out and setting: next, `O=C(Cc1cccc(-c2cccc(Cl)c2)c1)N1CCc2nc(C3(c4cccc(Cl)c4)CC3)[nH]c(=O)c2C1` [14-114]: < 50 nM; `N#Cc1ccc(-c2cccc(CC(=O)N3CCc4nc(C5(c6cccc(Cl)c6)CC5)[nH]c(=O)c4C3)c2)cc1` [14-115]: < 50 nM; `CC(C)(C)c1ccc(-c2cccc(CC(=O)N3CCc4nc(C5(c6cccc(Cl)c6)CC5)[nH]c(=O)c4C3)c2)cc1` [14-116]: < 50 nM.
Still for that read-out and setting: next, `O=C(Cc1cccc(-c2ccc(C(F)(F)F)cc2)c1)N1CCc2nc(C3(c4cccc(Cl)c4)CC3)[nH]c(=O)c2C1` [14-117]: < 50 nM; `O=C(Cc1cccc(-c2ccc(OC(F)(F)F)cc2)c1)N1CCc2nc(C3(c4cccc(Cl)c4)CC3)[nH]c(=O)c2C1` [14-118]: < 50 nM; `O=C(Cc1cccc(-c2ccc(Cl)cc2)c1)N1CCc2nc(C3(c4cccc(Cl)c4)CC3)[nH]c(=O)c2C1` [14-119]: < 50 nM.
On the same count and under the same terms, the result for `O=C(Cc1cccc(-c2coc3ccccc23)c1)N1CCc2nc(C3(c4cccc(Cl)c4)CC3)[nH]c(=O)c2C1` [14-120] reads < 50 nM; that for `N#Cc1cc(Cl)cc(-c2cccc(CC(=O)N3CCc4nc(C5(c6cccc(Cl)c6)CC5)[nH]c(=O)c4C3)c2)c1` [14-121], < 50 nM.
As to `O=C(Cc1cccc(-c2cccc(C(F)(F)F)c2)c1)N1CCc2nc(C3(c4cccc(Cl)c4)CC3)[nH]c(=O)c2C1` [14-122], the IC50 by setting is: under setting [1], < 50 nM; under setting [2], < 10 nM.
The corresponding values for `O=C([C@H](O)c1cccc(C(F)(F)F)c1)N1CCc2nc(C3(c4cc(C5CCCC5)cs4)CC3)[nH]c(=O)c2C1` [15-1] are < 50 nM and < 3 nM.
Take `CC(C)c1csc(C2(c3nc4c(c(=O)[nH]3)CN(C(=O)[C@H](O)c3cccc(C(F)(F)F)c3)CC4)CC2)c1` [15-2]: the concentration for half-maximal inhibition (IC50) was < 50 nM under setting [1] and < 3 nM under setting [2].
The matching figures for `O=C([C@H](O)c1cccc(C(F)(F)F)c1)N1CCc2nc(C3(c4cc(C5CCCCCC5)cs4)CC3)[nH]c(=O)c2C1` [15-3]: < 50 nM and < 3 nM.
In the case of `O=C([C@H](O)c1cccc(C(F)(F)F)c1)N1CCc2nc(C3(c4cc(C5CCCCC5)cs4)CC3)[nH]c(=O)c2C1` [15-4], the IC50 is, setting by setting: under setting [1], < 50 nM; under setting [2], < 3 nM.
The matching figures for `CCc1csc(C2(c3nc4c(c(=O)[nH]3)CN(C(=O)[C@H](O)c3cccc(C(F)(F)F)c3)CC4)CC2)c1` [15-5]: < 50 nM and < 10 nM.
The corresponding values for `O=C(C(O)c1cccc(-c2cccc(C(F)(F)F)c2)c1)N1CCc2nc(C3(c4cccs4)CC3)[nH]c(=O)c2C1` (stereo not shown) [15-6] are < 50 nM and < 10 nM.
Regarding `O=C([C@H](O)c1cccc(Cl)c1)N1CCc2nc(C3(c4cc(C5CCCCC5)cs4)CC3)[nH]c(=O)c2C1` [15-7], the IC50 is < 50 nM under setting [1] and < 10 nM under setting [2].
In the case of `CC(C)c1csc(C2(c3nc4c(c(=O)[nH]3)CN(C(=O)[C@H](O)c3cccc(Cl)c3)CC4)CC2)c1` [15-8], the IC50 under setting [1] is < 50 nM and the IC50 under setting [2] was < 10 nM.
As for `O=C([C@H](O)c1cccc(C(F)(F)F)c1)N1CCc2nc(C3(c4cc(Br)cs4)CC3)[nH]c(=O)c2C1` [15-9], the IC50 by setting is: under setting [1], < 50 nM; under setting [2], < 10 nM.
With `O=C(C(O)c1cccc(-c2ccc(Cl)cc2)c1)N1CCc2nc(C3(c4cccs4)CC3)[nH]c(=O)c2C1` (stereo not shown) [15-10], the IC50 under setting [1] is < 50 nM.
On the same count and under the same terms, the result for `O=C(C(O)c1cccc(-c2cccc(F)c2)c1)N1CCc2nc(C3(c4cccs4)CC3)[nH]c(=O)c2C1` (stereo not shown) [15-11] reads < 50 nM.
On the same count and under the same terms, the result for `O=C(C(O)c1cccc(SC(F)(F)F)c1)N1CCc2nc(C3(c4cccs4)CC3)[nH]c(=O)c2C1` (stereo not shown) [15-12] reads < 50 nM; that for `O=C(C(O)c1cccc(S(F)(F)(F)(F)F)c1)N1CCc2nc(C3(c4cccs4)CC3)[nH]c(=O)c2C1` (stereo not shown) [15-13], < 50 nM.
For the molecule `O=C([C@H](O)c1cccc(Cl)c1)N1CCc2nc(C3(c4cc(Cl)cs4)CC3)[nH]c(=O)c2C1` [15-14], under setting [1], the IC50 is < 50 nM.
In the case of `O=C([C@H](O)c1cccc(Cl)c1)N1CCc2nc(C3(c4cc(C5CCOCC5)cs4)CC3)[nH]c(=O)c2C1` [15-15], under setting [1], the IC50 is < 50 nM.
Same read-out and setting: next, `O=C(C(O)c1cccc(C(F)(F)F)c1F)N1CCc2nc(C3(c4cccs4)CC3)[nH]c(=O)c2C1` (stereo not shown) [15-16]: < 50 nM; `CC(C)(C)c1cccc(C(O)C(=O)N2CCc3nc(C4(c5cccs5)CC4)[nH]c(=O)c3C2)c1` (stereo not shown) [15-17]: < 50 nM.
Same read-out and setting: next, `O=C([C@H](O)c1cccc(C(F)(F)F)c1)N1CCc2nc(C3(c4cccs4)CC3)[nH]c(=O)c2C1` [15-18]: < 50 nM.
For `CC(C)c1csc(C2(c3nc4c(c(=O)[nH]3)CN(C(=O)C(O)c3cccc(C(C)(C)C)c3)CC4)CC2)c1` (stereo not shown) [15-24], the IC50 is < 50 nM under setting [1] and < 10 nM under setting [2].
The matching figures for `CC(C)c1csc(C2(c3nc4c(c(=O)[nH]3)CN(C(=O)C(O)c3cccc(C(F)(F)F)c3F)CC4)CC2)c1` (stereo not shown) [15-26]: < 50 nM and < 10 nM.
As to `CC(C)c1csc(C2(c3nc4c(c(=O)[nH]3)CN(C(=O)C(O)c3cccc(Cl)c3F)CC4)CC2)c1` (stereo not shown) [15-27], the IC50 is < 50 nM under setting [1] and < 3 nM under setting [2].
The corresponding values for `O=C(C(O)c1cccc(-c2cccc(OC(F)(F)F)c2)c1)N1CCc2nc(C3(c4cccs4)CC3)[nH]c(=O)c2C1` (stereo not shown) [15-28] are < 50 nM and < 3 nM.
The corresponding values for `O=C([C@H](O)c1cccc(Cl)c1)N1CCc2nc(C3(c4cncc(-c5ccccc5)c4)CC3)[nH]c(=O)c2C1` [16-1] are < 50 nM and < 3 nM.
The matching figures for `O=C(C(O)c1cccc(C(F)(F)F)c1F)N1CCc2nc(C3(c4cncc(-c5ccccc5)c4)CC3)[nH]c(=O)c2C1` (stereo not shown) [16-2]: < 50 nM and < 10 nM.
Take `C=C(C)c1cccc(C2(c3nc4c(c(=O)[nH]3)CN(C(=O)[C@H](O)c3cccc(C(F)(F)F)c3)CCC4)CC2)c1` [17-1]: the IC50 is, setting by setting: under setting [1], < 50 nM; under setting [2], < 3 nM.
Take `O=C([C@H](O)c1cccc(C(F)(F)F)c1)N1CCCc2nc(C3(c4cccc(C(F)(F)F)c4)CC3)[nH]c(=O)c2C1` [17-3]: the IC50 is < 50 nM under setting [1] and < 3 nM under setting [2].
The matching figures for `O=C(C(O)c1cccc(C(F)(F)F)c1F)N1CCCc2nc(C3(c4cccc(Cl)c4)CC3)[nH]c(=O)c2C1` (stereo not shown) [17-4]: < 50 nM and < 3 nM.
The corresponding values for `O=C(C(O)c1cccc(-c2cccc(F)c2)c1)N1CCCc2nc(C3(c4cccc(Cl)c4)CC3)[nH]c(=O)c2C1` (stereo not shown) [17-5] are < 50 nM and < 3 nM.
Turning to `O=C([C@H](O)c1cccc(C(F)(F)F)c1)N1CCCc2nc(C3(c4cccc(OC(F)(F)F)c4)CC3)[nH]c(=O)c2C1` [17-6], the IC50 was < 50 nM under setting [1] and < 3 nM under setting [2].
The corresponding values for `O=C(C(O)c1cccc(Cl)c1F)N1CCCc2nc(C3(c4cccc(Cl)c4)CC3)[nH]c(=O)c2C1` (stereo not shown) [17-7] are < 50 nM and < 3 nM.
The matching figures for `CC(C)c1cccc(C2(c3nc4c(c(=O)[nH]3)CN(C(=O)C(O)c3cccc(C(C)(C)C)c3)CCC4)CC2)c1` (stereo not shown) [17-8]: < 50 nM and < 3 nM.
As for `CC(C)c1cccc(C2(c3nc4c(c(=O)[nH]3)CN(C(=O)C(O)c3cccc(C(F)(F)F)c3F)CCC4)CC2)c1` (stereo not shown) [17-9], the IC50 under setting [1] was < 50 nM and the IC50 under setting [2] is < 10 nM.
The matching figures for `O=C(C(O)c1cccc(C(F)(F)F)c1F)N1CCCc2nc(C3(c4cccc(F)c4)CC3)[nH]c(=O)c2C1` (stereo not shown) [17-10]: < 50 nM and < 10 nM.
